What was measured:
Format in all cases: biochemical
[1] = target: T1, Hck-1 (Homo sapiens, UniProt P08631); assay: Kinase inhibition assay (33P transfer), Hck; conditions: Table 6, Hck-1 kinase inhibition class
T1 construct: Kinases are expressed as either kinase domains or full length constructs; made in house

[2] = target: T2, Src (Homo sapiens, UniProt P12931); assay: Kinase inhibition assay (33P transfer), Src; conditions: Table 6, Src-1 kinase inhibition class
T2 construct: Kinases are expressed as either kinase domains or full length constructs; made in house
T2 sequence (P12931 whole entry, species assumed, the tested form may be a part): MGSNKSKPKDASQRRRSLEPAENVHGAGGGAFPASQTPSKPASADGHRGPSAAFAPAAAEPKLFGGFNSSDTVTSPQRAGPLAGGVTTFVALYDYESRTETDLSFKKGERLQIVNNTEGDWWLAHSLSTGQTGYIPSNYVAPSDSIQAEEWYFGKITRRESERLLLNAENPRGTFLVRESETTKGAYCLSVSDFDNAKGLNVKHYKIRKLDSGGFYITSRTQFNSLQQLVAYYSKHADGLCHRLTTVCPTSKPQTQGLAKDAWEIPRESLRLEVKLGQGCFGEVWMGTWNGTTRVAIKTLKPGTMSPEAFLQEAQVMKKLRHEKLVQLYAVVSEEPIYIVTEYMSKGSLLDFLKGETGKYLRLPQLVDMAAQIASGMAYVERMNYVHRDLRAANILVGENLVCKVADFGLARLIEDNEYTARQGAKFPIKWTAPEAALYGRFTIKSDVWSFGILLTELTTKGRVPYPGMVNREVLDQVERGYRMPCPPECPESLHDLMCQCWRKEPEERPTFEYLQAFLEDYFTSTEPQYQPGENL
Summary of the method: (§1)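 Read-out: scintillation counts of 33P moved from ATP onto synthetic peptide polymer coated on the well surface, after washing with 0.5% phosphoric acid. Enzymes were tagged (GST or polyHistidine) and came from bacterial or insect-cell expression. IC50 marks 50% loss of incorporated label.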

[3] = target: T3, Lyn (Homo sapiens, UniProt P07948); assay: Kinase inhibition assay (33P transfer), Lyn; conditions: Table 6, Lyn-1 kinase inhibition class
T3 construct: Kinases are expressed as either kinase domains or full length constructs; made in house
T3 sequence (P07948 whole entry, species assumed, the tested form may be a part): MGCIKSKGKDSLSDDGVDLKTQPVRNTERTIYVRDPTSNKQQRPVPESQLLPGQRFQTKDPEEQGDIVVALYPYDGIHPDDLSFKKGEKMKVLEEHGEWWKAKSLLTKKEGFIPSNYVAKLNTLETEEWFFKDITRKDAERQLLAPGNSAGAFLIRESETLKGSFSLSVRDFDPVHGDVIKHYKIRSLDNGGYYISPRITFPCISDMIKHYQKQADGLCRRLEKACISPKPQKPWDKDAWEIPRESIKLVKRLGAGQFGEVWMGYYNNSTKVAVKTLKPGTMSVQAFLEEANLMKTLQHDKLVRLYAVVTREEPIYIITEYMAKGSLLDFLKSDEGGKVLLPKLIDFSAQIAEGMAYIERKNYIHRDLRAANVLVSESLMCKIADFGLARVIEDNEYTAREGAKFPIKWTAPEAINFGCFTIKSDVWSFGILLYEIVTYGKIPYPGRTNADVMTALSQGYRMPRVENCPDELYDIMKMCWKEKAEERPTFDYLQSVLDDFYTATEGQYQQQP
Summary of the method: as §1

[4] = target: T4, Ret-1 (Homo sapiens, UniProt P07949); assay: Kinase inhibition assay (33P transfer), Ret; conditions: Table 6, Ret-1 kinase inhibition class
T4 construct: Kinases are expressed as either kinase domains or full length constructs; made in house
T4 sequence (P07949 29-1114): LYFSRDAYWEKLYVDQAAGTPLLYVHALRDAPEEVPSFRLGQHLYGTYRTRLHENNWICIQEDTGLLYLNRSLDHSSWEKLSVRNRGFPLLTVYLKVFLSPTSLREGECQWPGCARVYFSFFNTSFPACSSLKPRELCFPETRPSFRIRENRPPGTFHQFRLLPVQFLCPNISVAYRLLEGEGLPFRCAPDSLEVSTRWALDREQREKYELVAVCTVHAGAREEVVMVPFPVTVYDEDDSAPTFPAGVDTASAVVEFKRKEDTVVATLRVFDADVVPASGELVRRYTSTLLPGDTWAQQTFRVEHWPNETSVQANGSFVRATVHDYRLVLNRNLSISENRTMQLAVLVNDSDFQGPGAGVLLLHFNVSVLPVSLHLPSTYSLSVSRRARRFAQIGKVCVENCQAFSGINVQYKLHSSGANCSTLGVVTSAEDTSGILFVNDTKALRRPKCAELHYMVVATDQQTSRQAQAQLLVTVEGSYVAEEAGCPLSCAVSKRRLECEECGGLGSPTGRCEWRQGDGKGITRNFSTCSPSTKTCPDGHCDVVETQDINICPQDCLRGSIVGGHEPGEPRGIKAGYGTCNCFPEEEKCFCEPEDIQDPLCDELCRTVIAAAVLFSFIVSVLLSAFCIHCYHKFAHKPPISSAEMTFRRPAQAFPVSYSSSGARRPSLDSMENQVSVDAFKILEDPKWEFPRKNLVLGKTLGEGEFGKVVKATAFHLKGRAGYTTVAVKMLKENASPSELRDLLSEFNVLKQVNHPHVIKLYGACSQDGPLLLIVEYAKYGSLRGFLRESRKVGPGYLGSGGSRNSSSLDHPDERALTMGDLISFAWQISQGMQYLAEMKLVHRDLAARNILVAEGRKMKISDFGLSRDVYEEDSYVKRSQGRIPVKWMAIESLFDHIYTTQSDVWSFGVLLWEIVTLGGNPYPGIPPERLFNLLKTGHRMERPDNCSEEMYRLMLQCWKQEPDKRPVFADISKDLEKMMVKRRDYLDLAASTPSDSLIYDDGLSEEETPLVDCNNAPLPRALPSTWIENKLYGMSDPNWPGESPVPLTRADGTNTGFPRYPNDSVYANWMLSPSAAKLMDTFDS

[5] = target: T5, EPHB4 (Homo sapiens, UniProt P54760); assay: Kinase inhibition assay (33P transfer), EPHB4; conditions: read-out: EPHB4-1
T5 construct: Kinases are expressed as either kinase domains or full length constructs; made in house
T5 sequence (P54760 16-987): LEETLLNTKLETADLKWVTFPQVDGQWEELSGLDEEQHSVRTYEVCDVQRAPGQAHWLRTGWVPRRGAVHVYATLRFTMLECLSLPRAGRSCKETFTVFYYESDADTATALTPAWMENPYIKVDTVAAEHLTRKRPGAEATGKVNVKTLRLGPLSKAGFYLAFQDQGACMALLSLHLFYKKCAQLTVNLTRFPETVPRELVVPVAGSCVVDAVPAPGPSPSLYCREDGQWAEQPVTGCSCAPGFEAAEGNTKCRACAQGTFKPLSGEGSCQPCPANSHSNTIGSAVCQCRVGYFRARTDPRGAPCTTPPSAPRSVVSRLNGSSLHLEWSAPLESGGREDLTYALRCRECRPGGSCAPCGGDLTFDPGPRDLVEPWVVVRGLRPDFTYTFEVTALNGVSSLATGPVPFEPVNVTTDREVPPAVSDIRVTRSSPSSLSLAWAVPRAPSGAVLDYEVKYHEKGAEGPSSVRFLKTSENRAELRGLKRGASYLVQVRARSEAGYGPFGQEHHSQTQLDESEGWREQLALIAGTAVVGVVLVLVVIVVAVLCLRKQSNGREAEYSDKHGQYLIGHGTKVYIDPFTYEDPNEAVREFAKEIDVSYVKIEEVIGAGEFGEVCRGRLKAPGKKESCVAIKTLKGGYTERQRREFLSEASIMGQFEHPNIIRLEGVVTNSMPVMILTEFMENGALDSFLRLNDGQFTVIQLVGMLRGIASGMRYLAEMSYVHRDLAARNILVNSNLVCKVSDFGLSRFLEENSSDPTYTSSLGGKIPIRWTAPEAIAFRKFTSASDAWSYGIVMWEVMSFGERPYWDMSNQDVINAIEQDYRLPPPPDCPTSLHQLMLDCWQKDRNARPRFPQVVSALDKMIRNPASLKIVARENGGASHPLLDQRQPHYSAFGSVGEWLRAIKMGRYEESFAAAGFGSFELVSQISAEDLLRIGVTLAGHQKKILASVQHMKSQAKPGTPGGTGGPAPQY

[6] = target: T6, Fyn (Homo sapiens, UniProt P06241); assay: Kinase inhibition assay (33P transfer), Fyn; conditions: read-out: Fyn-1
T6 construct: Kinases are expressed as either kinase domains or full length constructs; made in house
T6 sequence (P06241 whole entry, species assumed, the tested form may be a part): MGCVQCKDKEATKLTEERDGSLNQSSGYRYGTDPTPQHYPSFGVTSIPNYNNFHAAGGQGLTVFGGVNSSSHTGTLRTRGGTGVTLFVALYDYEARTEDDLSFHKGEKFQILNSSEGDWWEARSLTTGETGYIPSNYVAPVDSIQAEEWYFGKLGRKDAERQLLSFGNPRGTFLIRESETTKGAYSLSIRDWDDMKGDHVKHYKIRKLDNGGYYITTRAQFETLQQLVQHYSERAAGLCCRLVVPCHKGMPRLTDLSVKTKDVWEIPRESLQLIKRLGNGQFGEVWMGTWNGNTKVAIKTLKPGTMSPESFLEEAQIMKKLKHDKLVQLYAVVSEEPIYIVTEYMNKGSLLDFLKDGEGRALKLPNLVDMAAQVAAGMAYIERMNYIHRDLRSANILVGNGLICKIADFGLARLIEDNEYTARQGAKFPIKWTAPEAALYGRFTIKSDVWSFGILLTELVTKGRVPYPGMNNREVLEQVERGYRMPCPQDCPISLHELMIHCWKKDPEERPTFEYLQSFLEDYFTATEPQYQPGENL
Summary of the method: as §1

[7] = target: T7, FGFR1 (Homo sapiens, UniProt P11362); assay: Kinase inhibition assay (33P transfer), FGFR1; conditions: read-out: FGFR1-1
T7 construct: Kinases are expressed as either kinase domains or full length constructs; made in house

[8] = target: T8, Flt-1 (Homo sapiens, UniProt P17948); assay: Kinase inhibition assay (33P transfer), Flt-1
T8 construct: Kinases are expressed as either kinase domains or full length constructs; made in house
T8 sequence (P17948 27-1338, species assumed): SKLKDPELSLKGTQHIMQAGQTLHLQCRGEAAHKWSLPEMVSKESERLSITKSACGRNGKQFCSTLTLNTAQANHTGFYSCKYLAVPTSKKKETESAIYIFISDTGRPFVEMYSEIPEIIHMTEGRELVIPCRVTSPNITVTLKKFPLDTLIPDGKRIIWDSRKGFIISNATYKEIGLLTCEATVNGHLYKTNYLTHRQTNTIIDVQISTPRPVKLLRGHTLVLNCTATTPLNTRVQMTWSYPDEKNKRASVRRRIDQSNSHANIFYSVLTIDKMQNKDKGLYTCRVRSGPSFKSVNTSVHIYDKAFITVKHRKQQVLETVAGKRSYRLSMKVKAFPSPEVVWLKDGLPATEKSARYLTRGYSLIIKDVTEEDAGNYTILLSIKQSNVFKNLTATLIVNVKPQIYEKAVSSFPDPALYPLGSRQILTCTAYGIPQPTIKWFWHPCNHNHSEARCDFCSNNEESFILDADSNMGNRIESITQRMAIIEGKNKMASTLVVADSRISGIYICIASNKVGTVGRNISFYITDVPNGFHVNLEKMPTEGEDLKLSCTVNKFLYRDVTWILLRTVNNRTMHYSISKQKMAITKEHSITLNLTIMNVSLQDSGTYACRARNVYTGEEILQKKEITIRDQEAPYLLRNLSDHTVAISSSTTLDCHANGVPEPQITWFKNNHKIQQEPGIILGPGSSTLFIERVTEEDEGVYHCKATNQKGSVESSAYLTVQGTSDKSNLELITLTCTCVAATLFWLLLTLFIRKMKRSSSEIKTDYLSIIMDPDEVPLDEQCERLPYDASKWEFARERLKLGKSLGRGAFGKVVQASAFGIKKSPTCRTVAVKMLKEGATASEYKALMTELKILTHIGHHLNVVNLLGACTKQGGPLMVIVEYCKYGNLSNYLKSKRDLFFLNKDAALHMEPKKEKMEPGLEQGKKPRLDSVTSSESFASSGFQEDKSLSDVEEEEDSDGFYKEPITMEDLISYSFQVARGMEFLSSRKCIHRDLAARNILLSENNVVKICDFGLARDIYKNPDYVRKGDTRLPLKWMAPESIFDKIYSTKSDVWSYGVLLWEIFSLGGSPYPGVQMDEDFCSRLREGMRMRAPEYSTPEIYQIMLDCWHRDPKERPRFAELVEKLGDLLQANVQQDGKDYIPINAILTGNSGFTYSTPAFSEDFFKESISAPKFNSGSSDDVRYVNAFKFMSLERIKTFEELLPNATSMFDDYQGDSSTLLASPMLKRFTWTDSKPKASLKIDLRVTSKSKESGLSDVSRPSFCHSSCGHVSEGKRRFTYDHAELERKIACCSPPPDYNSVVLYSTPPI
Summary of the method: as §1

[9] = target: T9, ErbB4 (Homo sapiens, UniProt Q15303); assay: Kinase inhibition assay (33P transfer), ErbB4; conditions: read-out: ErbB4-1
T9 construct: Kinases are expressed as either kinase domains or full length constructs; made in house

[10] = target: T10, Tek (Homo sapiens, UniProt Q02763); assay: Kinase inhibition assay (33P transfer), Tek; conditions: read-out: Tek-1
T10 construct: Kinases are expressed as either kinase domains or full length constructs; made in house
Summary of the method: as §1

[11] = target: T11, Lck (Homo sapiens, UniProt P06239); assay: Kinase inhibition assay (33P transfer), Lck; conditions: read-out: Lck-1
T11 construct: Kinases are expressed as either kinase domains or full length constructs; made in house
Summary of the method: (§2)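 33P-ATP transfer to coated synthetic polymer substrates; acid wash (0.5% H3PO4), scintillant, liquid scintillation count. Enzymes: His- or GST-fusion kinases from E. coli or High Five insect cells.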

[12] = target: T12, Itk (Homo sapiens, UniProt Q08881); assay: Kinase inhibition assay (33P transfer), Itk; conditions: read-out: Itk-1
T12 construct: Kinases are expressed as either kinase domains or full length constructs; made in house
T12 sequence (Q08881 1-620): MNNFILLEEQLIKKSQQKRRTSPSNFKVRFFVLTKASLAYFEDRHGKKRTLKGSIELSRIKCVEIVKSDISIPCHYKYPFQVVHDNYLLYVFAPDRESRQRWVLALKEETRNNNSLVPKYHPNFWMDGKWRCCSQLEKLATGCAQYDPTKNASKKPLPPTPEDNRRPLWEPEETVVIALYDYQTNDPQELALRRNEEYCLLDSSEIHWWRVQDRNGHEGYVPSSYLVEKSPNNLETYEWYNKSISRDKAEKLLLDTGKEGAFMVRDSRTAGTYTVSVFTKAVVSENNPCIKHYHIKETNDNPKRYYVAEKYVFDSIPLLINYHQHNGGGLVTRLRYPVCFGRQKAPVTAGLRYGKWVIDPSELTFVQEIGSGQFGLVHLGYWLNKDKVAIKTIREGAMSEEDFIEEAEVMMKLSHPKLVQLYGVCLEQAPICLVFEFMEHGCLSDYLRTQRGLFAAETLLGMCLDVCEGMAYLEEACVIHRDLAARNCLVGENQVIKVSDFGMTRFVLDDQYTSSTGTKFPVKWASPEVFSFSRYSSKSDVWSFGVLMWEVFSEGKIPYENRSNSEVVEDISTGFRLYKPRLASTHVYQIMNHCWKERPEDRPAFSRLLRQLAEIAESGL
Summary of the method: as §1

[13] = target: T13, AKT (Homo sapiens, UniProt Q9Y243); assay: Kinase inhibition assay (33P transfer), AKT; conditions: Table 2, kinase inhibition class; read-out: AKT3-1
T13 construct: Kinases are expressed as either kinase domains or full length constructs; made in house
T13 sequence (Q9Y243 whole entry, the tested form may be a part): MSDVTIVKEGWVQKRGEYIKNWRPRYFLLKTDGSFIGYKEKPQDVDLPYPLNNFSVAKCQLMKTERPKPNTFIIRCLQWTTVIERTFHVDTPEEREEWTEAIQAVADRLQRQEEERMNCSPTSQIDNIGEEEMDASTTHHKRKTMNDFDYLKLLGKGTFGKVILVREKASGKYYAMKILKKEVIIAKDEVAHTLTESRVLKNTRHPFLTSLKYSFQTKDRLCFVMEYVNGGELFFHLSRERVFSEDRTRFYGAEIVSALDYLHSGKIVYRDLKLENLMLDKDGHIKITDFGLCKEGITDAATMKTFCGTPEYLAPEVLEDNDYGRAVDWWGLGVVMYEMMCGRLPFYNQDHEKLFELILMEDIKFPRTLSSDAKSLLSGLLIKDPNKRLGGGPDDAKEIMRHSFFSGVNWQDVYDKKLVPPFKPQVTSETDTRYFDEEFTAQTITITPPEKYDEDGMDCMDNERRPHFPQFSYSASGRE
Summary of the method: as §2

[14] = target: T14, EGFR (Homo sapiens, UniProt P00533); assay: Kinase inhibition assay (33P transfer), EGFR; conditions: Table 2, kinase inhibition class; read-out: EGFR-1
T14 construct: Kinases are expressed as either kinase domains or full length constructs; made in house
Summary of the method: as §1

[15] = target: T15, IGFR-1 (Homo sapiens, UniProt P08069); assay: Kinase inhibition assay, IGFR-1 (Table 2); conditions: Table 2, kinase inhibition class
T15 construct: Kinases are expressed as either kinase domains or full length constructs; made in house

[16] = target: T16, ErbB2 (Homo sapiens, UniProt P04626); assay: Kinase inhibition assay (33P transfer), ErbB2; conditions: read-out: ErbB2-2
T16 construct: Kinases are expressed as either kinase domains or full length constructs; made in house
Summary of the method: as §1

[17] = target: T17, PDGFRB (Homo sapiens, UniProt P09619); assay: Kinase inhibition assay (33P transfer), PDGFRB; conditions: read-out: PDGFRB-1
T17 construct: Kinases are expressed as either kinase domains or full length constructs; made in house

[18] = target: T18, Kdr (Homo sapiens, UniProt P35968); assay: Kinase inhibition assay (33P transfer), Kdr; conditions: read-out: KDR-1
T18 construct: Kinases are expressed as either kinase domains or full length constructs; made in house
Summary of the method: as §2

[19] = target: T19, Zap-70 (Homo sapiens, UniProt P43403); assay: Kinase inhibition assay (33P transfer), Zap-70; conditions: read-out: Zap-1
T19 construct: Kinases are expressed as either kinase domains or full length constructs; made in house
T19 sequence (P43403 1-619): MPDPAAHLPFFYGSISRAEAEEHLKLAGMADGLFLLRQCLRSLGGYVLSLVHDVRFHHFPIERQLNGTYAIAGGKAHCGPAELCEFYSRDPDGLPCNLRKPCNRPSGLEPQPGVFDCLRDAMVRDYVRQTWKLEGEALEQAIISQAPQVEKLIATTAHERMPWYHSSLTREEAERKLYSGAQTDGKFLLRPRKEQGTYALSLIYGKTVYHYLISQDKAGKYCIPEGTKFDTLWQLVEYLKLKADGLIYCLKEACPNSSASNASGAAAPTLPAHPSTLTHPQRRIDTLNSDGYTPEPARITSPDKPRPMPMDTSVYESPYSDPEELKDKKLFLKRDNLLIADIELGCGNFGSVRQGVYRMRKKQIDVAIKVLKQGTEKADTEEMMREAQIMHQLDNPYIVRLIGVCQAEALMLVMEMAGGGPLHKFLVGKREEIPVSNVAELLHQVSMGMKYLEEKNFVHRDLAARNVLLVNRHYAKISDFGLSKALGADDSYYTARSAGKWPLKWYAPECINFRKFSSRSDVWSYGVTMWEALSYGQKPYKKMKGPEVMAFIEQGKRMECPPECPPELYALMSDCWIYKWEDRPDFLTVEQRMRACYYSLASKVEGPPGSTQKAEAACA
Summary of the method: as §2

[20] = target: T20, c-Met (Homo sapiens, UniProt P08581); assay: Kinase inhibition assay (33P transfer), c-Met; conditions: Table 2, kinase inhibition class; read-out: Met-1
T20 construct: Kinases are expressed as either kinase domains or full length constructs; made in house
Summary of the method: as §1

T1 sequence (P08631 whole entry, the tested form may be a part): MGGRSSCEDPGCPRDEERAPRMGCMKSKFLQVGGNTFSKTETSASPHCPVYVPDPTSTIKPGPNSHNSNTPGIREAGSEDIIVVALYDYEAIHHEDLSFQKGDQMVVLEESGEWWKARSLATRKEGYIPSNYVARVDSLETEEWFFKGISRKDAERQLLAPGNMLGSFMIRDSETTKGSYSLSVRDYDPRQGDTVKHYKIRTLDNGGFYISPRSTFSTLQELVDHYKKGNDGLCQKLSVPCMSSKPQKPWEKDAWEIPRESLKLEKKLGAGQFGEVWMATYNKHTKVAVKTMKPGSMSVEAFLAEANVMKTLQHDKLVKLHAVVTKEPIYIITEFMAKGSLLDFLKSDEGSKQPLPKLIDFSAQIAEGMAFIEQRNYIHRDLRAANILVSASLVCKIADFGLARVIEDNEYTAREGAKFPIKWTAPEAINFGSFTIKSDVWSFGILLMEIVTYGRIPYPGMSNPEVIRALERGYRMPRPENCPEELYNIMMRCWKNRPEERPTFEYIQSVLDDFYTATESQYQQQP

IC50 [1] | IC50 [2] | IC50 [3] | IC50 [4] | IC50 [5] | IC50 [6] | IC50 [7] | IC50 [8] | IC50 [9] | IC50 [10] | IC50 [11] | IC50 [12] | IC50 [13] | IC50 [14] | IC50 [15] | IC50 [16] | IC50 [17] | IC50 [18] | IC50 [19] | IC50 [20] | Compound
> 10.5 µM | 0.935 to 5.61 µM | 0.935 to 5.61 µM | < 0.935 µM | < 0.935 µM | 5.61 to 8.18 µM | 0.935 to 5.61 µM | 0.935 to 5.61 µM | 8.18 to 10.5 µM | – | – | – | – | – | – | – | – | – | – | – | COc1cc(Nc2ncnc(-n3c(N)nc4cc(Cl)ccc43)n2)cc(OC)c1OC [Compound 296]
> 10.3 µM | > 10.3 µM | > 10.3 µM | 0.912 to 5.47 µM | 0.912 to 5.47 µM | > 10.3 µM | > 10.3 µM | > 10.3 µM | > 10.3 µM | – | – | – | – | – | – | – | – | – | – | – | COc1cc(Nc2ncnc(-n3c(N)nc4cc([N+](=O)[O-])ccc43)n2)cc(OC)c1OC [Compound 294]
> 8.76 µM | 0.779 to 4.67 µM | < 0.779 µM | < 0.779 µM | – | 0.779 to 4.67 µM | < 0.779 µM | < 0.779 µM | 4.67 to 6.82 µM | 4.67 to 6.82 µM | < 0.779 µM | > 8.76 µM | > 8.76 µM | 0.779 to 4.67 µM | 6.82 to 8.76 µM | 0.779 to 4.67 µM | < 0.779 µM | < 0.779 µM | > 8.76 µM | > 8.76 µM | COc1cc(Nc2ncnc(-n3c(N[C@@H](CO)c4ccccc4)nc4ccccc43)n2)cc(OC)c1OC [Compound 1036]
